From publication PMC11171218, “N-Benzylated 5-Hydroxybenzothiophene-2-carboxamides as Multi-Targeted Clk/Dyrk Inhibitors and Potential Anticancer Agents” (Cancers, 2024)

Key:
Dyrk1A = Dyrk1A (Homo sapiens, UniProt Q13627); assay: Z'-LYTE kinase inhibition assay, Dyrk1A; format: biochemical; details: for IC50: ATP conc. equivalent to Km; for inhibition at 1 µM: read-out: Dyrk1A % Inh. At 1 µM
From the text: (§1) 3. Experimental procedure for protein kinases and inhibition assays.
(§2) 3.1 The Z ́ -LYTE biochemical assay for screening and IC 50 determination for Clk1, Dyrk1A, Dyrk1B, Clk2 and Clk3 kinases.
(§3) The assay employs a fluorescence-based, coupled-enzyme format and is based on the differential sensitivity of phosphorylated and non-phosphorylated peptides to proteolytic cleavage. The peptide substrate is labeled with two fluorophores-one at each end-that make up a FRET pair. In the primary reaction, the kinase transfers the gamma-phosphate of ATP to a single tyrosine, serine, or threonine residue in a synthetic FRET-peptide. In the secondary reaction, a site-specific protease recognizes and cleaves non-phosphorylated FRET-peptides. Phosphorylation of FRET-peptides suppresses cleavage by the Development Reagent. Cleavage disrupts FRET between the donor (i.e., coumarin) and acceptor (i.e., fluorescein) fluorophores on the FRET-peptide, whereas uncleaved, phosphorylated FRET-peptides maintain FRET. A ratiometric method, which calculates the ratio (the Emission Ratio) of donor emission to acceptor emission after excitation of the donor fluorophore at 400 nm, is used to quantitate reaction progress. Both cleaved and uncleaved FRET-peptides contribute to the fluorescence signals and therefore to the Emission Ratio. The extent of phosphorylation of the FRET-peptide can be calculated from the Emission Ratio. The Emission Ratio will remain low if the FRET-peptide is phosphorylated (i.e., no kinase inhibition) and will be high if the FRET-peptide is non-phosphorylated (i.e., kinase inhibition).
(§4) The IC 50 values were determined for compounds displaying significant % inhibition in the screening step. IC 50 determination was done through testing at a range of concentrations with two […]
(§5) two independent experiments. […]
3.1.2 Dyrk1A kinase assay specific conditions:
The 2x Dyrk1A / Ser/Thr 18 mixture is prepared in 50 mM HEPES pH 7.5, 0.01% BRIJ-35, 10 […]
2 µM Ser/Thr 18 in 50 mM HEPES pH 7.5, 0.01% BRIJ-35, 10 mM MgCl 2, 1 mM EGTA. […]
Development Reagent A is added. […]
(§6) MgCl2, 1 mM EGTA, 0.02% NaN3. […]

Clk2 = Clk2 (Homo sapiens, UniProt P49760); assay: Z'-LYTE kinase inhibition assay, Clk2; format: biochemical; details: for inhibition at 1 µM: 1 µM compound, screening by Thermo Fisher Scientific; for IC50: ATP concentration equivalent to Km
Sequence of Clk2 (P49760 whole entry): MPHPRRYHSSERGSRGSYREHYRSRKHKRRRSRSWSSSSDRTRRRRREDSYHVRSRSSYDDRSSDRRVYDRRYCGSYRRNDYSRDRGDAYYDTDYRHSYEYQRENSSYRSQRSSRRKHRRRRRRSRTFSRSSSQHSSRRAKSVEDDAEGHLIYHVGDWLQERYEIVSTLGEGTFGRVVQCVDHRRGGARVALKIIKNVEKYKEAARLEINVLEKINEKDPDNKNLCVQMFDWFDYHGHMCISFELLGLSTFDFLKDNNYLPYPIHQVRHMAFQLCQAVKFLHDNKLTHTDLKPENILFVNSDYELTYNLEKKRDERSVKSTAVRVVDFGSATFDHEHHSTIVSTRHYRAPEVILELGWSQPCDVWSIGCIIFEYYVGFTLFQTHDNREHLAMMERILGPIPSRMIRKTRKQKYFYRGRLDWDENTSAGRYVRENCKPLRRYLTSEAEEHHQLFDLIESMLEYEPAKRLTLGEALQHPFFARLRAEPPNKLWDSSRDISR
From the text: as §1, §2, §3, §4, §5
Development Reagent A is added.
3.1.4 Clk2 kinase assay specific conditions:
The 2X Clk2 / Ser/Thr 06 mixture is prepared in 50 mM HEPES pH 7.5, 0.01% BRIJ-35, 10 mM […]
Ser/Thr 06 in 50 mM HEPES pH 7.5, 0.01% BRIJ-35, 10 mM MgCl2, 1 mM EGTA. […]
as §6

HCT-116 cells = assay: CCK-8 cell viability, HCT-116; format: cell-based; details: Homo sapiens, 72 h; for inhibition at 20 µM: HCT-116, read-out: HCT-[…] Inh. at 20 μM, CCK-8, mean ± S.E.M. (n = 3); for IC50: HCT-116, read-out: HCT-116 IC50 in µM, CCK-8, 50% inhibition of viability
Procedure: (§7) All cells were purchased from Bioresource Collection and Research Center (Hsinchu, Taiwan) and cultured in corresponding media supplemented with 10% fetal bovine serum, 1 × Antibiotic-Antimycotic at 37 °C in a humidified incubator with 5% CO2. […] T24 cells were cultured in McCoy’s 5a media. IEC-6 cells were cultured in DMEM media supplemented with 5% fetal bovine serum, 1 × Antibiotic–Antimycotic, and 0.1 unit/mL insulin.
(§8) Cells were incubated with the Cell Counting Kit-8 (CCK-8) reagent (TargetMol, Boston, MA, USA) at 37 °C for 2 h. The cell viability was determined by spectrophotometer at 450 nm.

MCF-7 cells = assay: CCK-8 cell viability, MCF-7; format: cell-based; details: Homo sapiens, MCF7, 72 h, CCK-8, mean ± S.E.M. (n = 3), read-out: MCF-7 % Inh. at μM
Procedure: as §7, §8

A549 cells = assay: CCK-8 cell viability, A549; format: cell-based; details: Homo sapiens, 72 h, CCK-8, mean ± S.E.M. (n = 3), read-out: A549 % Inh. at μM
Procedure: as §7, §8

U87 cells = assay: CCK-8 cell viability, U87; format: cell-based; details: Homo sapiens, U-87 MG, 72 h; for inhibition at 20 µM: CCK-8, mean ± S.E.M. (n = 3), read-out: U87 % Inh. at μM
Procedure: as §7, §8

cleaved caspase-3 = assay: Western blot, cleaved caspase-3 in T24 cells; format: cell-based, human; details: 10–50 μM, 24 h
From the text: Cell lysates were sequentially suspended in commercial RIPA Buffer (pH 7.4; Cat# RB4475, Bio Basic, Markham, Ontario, Canada) containing Protease Inhibitor Cocktail and PhosSTOP (Merck, Darmstadt, Germany), boiled in sodium dodecyl sulphate (SDS) sample buffer, separated by SDS-polyacrylamide gel electrophoresis (PAGE), and electrophoresed onto a PVDF membrane. Antibodies used in this study were Bcl-2 (Cat#A19693, RRID: AB_2862738) and Bax (Cat# A0207, RRID: AB_2757021) from ABclonal (Boston, MA, USA); cleaved caspase-3 (Cat# 9662, RRID: AB_331439) and GAPDH (Cat# 8884, RRID:AB_11129865) from Cell Signaling Technology (Beverly, MA, USA). The labeled signals were determined using HRP-conjugated secondary antibodies and the Bio-rad ChemiDoc™ MP Imaging System (Berkeley, CA, USA).
Figure 4 Examining the effect of 12 and 17 on proapoptotic and antiapoptotic pathways. T24 cells were treated with DMSO (0.1%), 12 (30–50 µM), or 17 (30–50 µM) for 24 h. Expression levels of cleaved caspase-3, Bax, Bcl-2, and GAPDH were analyzed by Western blot by corresponding antibodies. The quantitation of the cleaved caspase-3/GAPDH, Bax/GAPDH, and Bcl-2/GAPDH ratio are shown. All data are expressed as the mean ± S.E.M. (n = 3). * p < 0.05, ** p < 0.01, *** p < 0.001 compared with the DMSO group.

SMILES | IC50 (Dyrk1A) [nM] | inhibition at 1 µM (Dyrk1A) [%] | inhibition at 1 µM (Clk2) [%] | melting point [°C] | IC50 (Clk2) [nM] | IC50 (HCT-116 cells) [µM] | IC50 (U87 cells; CCK-8, 50% inhibition of viability) [nM] | inhibition at 20 µM (HCT-116 cells) [%] | inhibition at 20 µM (MCF-7 cells) [%] | inhibition at 20 µM (A549 cells) [%] | inhibition at 20 µM (U87 cells) [%] | Level of cleaved caspase-3 (cleaved caspase-3)
O=C(NCc1cccc(Cl)c1)c1cc2cc(O)ccc2s1 [Compound 3, N-(3-Chlorobenzyl)-5-hydroxybenzo[b]thiophene-2-carboxamide] | 751 | 60 | 46 | 211.2 to 212.3 | – | – | – | 25.9 ± 2.54 | 15.6 ± 3.85 | 54.7 ± 3.77 | 32.2 ± 4.76 | –
COc1ccccc1CNC(=O)c1cc2cc(O)ccc2s1 [Compound 11, 5-Hydroxy-N-(2-methoxybenzyl)benzo[b]thiophene-2-carboxamide] | 565 | 64 | 50 | 128.5 to 130.7 | – | – | – | 0 | 56.4 ± 4.47 | 34.7 ± 3.91 | 18.1 ± 0.81 | –
O=C(NCc1cccc(F)c1)c1cc2cc(O)ccc2s1 [Compound 6, N-(3-Fluorobenzyl)-5-hydroxybenzo[b]thiophene-2-carboxamide] | 666 | 60 | 38 | 176.7 to 177.7 | – | – | – | 60.1 ± 3.11 | 16.2 ± 2.2 | 36.5 ± 1.57 | 21 ± 5.07 | –

More lines, main results first:

IC50 (Dyrk1A) [nM] | inhibition at 1 µM (Dyrk1A) [%] | inhibition at 1 µM (Clk2) [%] | melting point [°C] | IC50 (Clk2) [nM] | IC50 (HCT-116 cells) [µM] | IC50 (U87 cells; CCK-8, 50% inhibition of viability) [nM] | SMILES | inhibition at 20 µM (HCT-116 cells) [%] | inhibition at 20 µM (MCF-7 cells) [%] | inhibition at 20 µM (A549 cells) [%] | inhibition at 20 µM (U87 cells) [%] | Level of cleaved caspase-3 (cleaved caspase-3)
495 | 67 | 62 | – | 708 | 8.1 | – | O=C(NCc1cc(F)cc(F)c1)c1cc2cc(O)ccc2s1 [Compound 17, N-(3,5-Difluorobenzyl)-5-hydroxybenzo[b]thiophene-2-carboxamide] | 67.6 ± 0.58 | 20.9 ± 2.02 | 38.8 ± 4.06 | 47.3 ± 5.65 | increased the proapoptotic levels of cleaved caspase-3 and Bax
536 | 65 | 62 | – | 617 | 6.4 | 16500 | COc1cccc(CNC(=O)c2cc3cc(O)ccc3s2)c1 [Compound 12, 5-Hydroxy-N-(3-methoxybenzyl)benzo[b]thiophene-2-carboxamide] | 75.7 ± 0.31 | 93.5 ± 0.17 | 41 ± 8.96 | 60.1 ± 6.16 | increased the proapoptotic levels of cleaved caspase-3 and Bax
